One experiment addresses T1, 5HT2A (Homo sapiens, UniProt P28223).
T1 construct: expressed in transfected cells; host or cells: NIH3T3 (membrane fraction)
Nature of the experiment: Competitive radioligand binding, 5HT2A. The following applies: NIH3T3 membranes, 3H-ketanserin 2 nM; read-out: pIC50 5HT2A (converted). The procedure: (§1) Competitive radioligand binding assays were used to determine the affinity of the test compounds for a particular receptor. Various concentrations of the non-labelled test compound were added to the incubation mixture with the membrane fraction, containing the receptor of interest, and a fixed low concentration (nM) of the radioligand. During the incubation the radioligand bound to the receptor, but this was inhibited by the non-labelled test compound in proportion to its binding affinity and concentration.
(§2) Cell lines were established that stably express the human variant of the receptor under investigation after transfection with the appropriate cDNA (Table 1). Transfected cells were grown under standard culture conditions, and membrane fractions were obtained upon centrifugation and homogenisation of the cells. Optimal membrane dilutions for binding studies were determined and aliquots were stored at −70° C. until use. In a 96-well plate format, the appropriate radioligand was added to the membrane preparation containing the receptor under investigation. Compound solutions were prepared in DMSO, and diluted 100-fold into the multiwell plate to a final test concentration of 10^−9 to 10^−5 M. After incubation with the test compound, the unbound radioligand was removed by filtration on G/F filters with a Filtermate 96. Microscint™ was added to the washed filter plates and the radioactivity bound to the receptor was measured by liquid scintillation counting in a TopCount (Packard). To measure the Non-Specific Binding (NSB), a high concentration of the non-radiolabeled ligand was added to wells containing the membrane fraction and the radioligand.
(§3) From this, the pIC50 value (inhibitory concentration causing 50% displacement of specific binding) was determined, as well as an estimate of the slope of the plot (Hill coefficient).

The next experiment concerns the target T2, 5HT3A/B (Homo sapiens, UniProt O95264+P46098).
T2 construct: expressed in transfected cells; host or cells: HEK293 (membrane fraction)
T2 sequence (P46098 24-478): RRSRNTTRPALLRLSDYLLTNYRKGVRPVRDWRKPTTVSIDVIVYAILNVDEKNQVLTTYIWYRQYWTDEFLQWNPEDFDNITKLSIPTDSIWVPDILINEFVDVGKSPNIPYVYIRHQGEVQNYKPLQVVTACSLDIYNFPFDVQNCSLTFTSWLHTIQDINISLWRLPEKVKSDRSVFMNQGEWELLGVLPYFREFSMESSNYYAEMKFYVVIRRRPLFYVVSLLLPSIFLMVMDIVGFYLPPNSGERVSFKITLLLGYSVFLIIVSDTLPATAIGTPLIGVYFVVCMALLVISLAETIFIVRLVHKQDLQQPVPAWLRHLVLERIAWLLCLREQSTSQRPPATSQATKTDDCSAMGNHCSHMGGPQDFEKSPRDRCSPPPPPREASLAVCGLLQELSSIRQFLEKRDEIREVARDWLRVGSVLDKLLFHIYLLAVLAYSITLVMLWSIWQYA
T2 sequence (O95264 22-441): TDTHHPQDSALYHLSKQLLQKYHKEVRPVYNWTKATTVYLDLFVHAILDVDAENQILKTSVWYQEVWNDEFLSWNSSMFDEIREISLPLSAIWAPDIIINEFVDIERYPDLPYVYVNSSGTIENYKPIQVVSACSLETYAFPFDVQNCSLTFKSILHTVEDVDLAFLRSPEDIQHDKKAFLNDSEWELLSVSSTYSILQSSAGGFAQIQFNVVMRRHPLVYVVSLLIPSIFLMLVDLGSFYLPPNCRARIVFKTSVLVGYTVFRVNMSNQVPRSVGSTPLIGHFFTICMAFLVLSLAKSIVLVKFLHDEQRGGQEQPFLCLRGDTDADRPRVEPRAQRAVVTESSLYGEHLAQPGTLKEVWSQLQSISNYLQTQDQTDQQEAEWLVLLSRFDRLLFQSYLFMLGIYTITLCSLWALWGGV
In words: Competitive radioligand binding, 5HT3A/B. Particulars: HEK293 membranes, 3H-GR65630 0.5 nM; for IC50: read-out: pIC50 5HT3A/B (converted). As to the method: as §1, §2
(§4) Using in house developed software, a best-fit curve was fitted by a minimum sum of squares method to the plot of % inhibition vs. concentration of the test compound. From this, the pIC50 value (inhibitory concentration causing 50% displacement of specific binding) was determined, as well as an estimate of the slope of the plot (Hill coefficient).

For another experiment, the target named is T3, Alpha1A (Homo sapiens, UniProt P35348).
T3 construct: expressed in transfected cells; host or cells: CHO (membrane fraction)
T3 sequence (P35348 1-466): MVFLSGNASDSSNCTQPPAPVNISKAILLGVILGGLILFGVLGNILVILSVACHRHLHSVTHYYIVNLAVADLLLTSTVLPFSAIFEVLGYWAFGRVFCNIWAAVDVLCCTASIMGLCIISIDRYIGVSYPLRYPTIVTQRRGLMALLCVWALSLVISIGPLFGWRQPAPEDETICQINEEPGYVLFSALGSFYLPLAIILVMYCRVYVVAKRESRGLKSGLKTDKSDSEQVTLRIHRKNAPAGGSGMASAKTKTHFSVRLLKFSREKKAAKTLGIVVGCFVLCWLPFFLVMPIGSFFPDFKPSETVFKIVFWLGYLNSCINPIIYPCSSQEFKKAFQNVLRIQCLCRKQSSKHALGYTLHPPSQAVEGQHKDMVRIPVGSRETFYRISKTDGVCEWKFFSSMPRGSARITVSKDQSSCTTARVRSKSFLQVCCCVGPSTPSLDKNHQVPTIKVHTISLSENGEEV
Nature of the experiment: Competitive radioligand binding, Alpha1A. Particulars: CHO membranes, 3H-prazosin 0.25 nM; read-out: pIC50 Alpha1A (converted). As to the method:
as §1, §2, §4

The target in another experiment is T4, Alpha2A (Homo sapiens, UniProt P08913).
T4 construct: expressed in transfected cells; host or cells: CHO (membrane fraction)
T4 sequence (P08913 1-465): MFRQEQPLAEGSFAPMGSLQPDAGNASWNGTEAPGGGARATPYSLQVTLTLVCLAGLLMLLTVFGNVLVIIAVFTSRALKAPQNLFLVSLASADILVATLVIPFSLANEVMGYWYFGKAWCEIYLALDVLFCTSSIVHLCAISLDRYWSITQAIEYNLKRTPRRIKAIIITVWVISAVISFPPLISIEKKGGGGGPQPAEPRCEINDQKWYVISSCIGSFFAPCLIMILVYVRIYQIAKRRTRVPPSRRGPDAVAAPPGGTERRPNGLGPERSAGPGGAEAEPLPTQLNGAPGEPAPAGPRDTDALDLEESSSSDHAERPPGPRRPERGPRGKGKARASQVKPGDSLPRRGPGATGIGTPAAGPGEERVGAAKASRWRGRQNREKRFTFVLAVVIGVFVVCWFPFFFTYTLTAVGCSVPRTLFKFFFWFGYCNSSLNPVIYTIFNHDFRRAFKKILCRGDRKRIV
Nature of the experiment: Competitive radioligand binding, Alpha2A. The following applies: CHO membranes, 3H-rauwolscine 1 nM; for IC50: read-out: pIC50 Alpha2A (converted). As to the method:
as §1, §2

The target in a further experiment is T5, D2L (Homo sapiens, UniProt P14416).
T5 construct: expressed in transfected cells; host or cells: CHO (membrane fraction)
T5 sequence (P14416 whole entry): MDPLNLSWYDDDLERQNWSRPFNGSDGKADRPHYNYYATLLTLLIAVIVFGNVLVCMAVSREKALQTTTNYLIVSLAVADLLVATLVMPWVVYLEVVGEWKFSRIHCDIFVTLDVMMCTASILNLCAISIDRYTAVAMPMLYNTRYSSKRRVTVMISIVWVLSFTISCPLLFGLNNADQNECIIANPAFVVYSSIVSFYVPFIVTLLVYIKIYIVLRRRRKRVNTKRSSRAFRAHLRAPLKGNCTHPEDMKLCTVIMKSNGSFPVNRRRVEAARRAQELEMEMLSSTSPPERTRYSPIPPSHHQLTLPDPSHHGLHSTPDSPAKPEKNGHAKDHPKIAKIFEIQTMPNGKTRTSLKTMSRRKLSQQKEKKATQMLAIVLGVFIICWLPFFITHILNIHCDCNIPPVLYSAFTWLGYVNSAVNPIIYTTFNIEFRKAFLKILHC
In words: Competitive radioligand binding, D2L. Particulars: CHO membranes, 3H-spiperone 0.2 nM; for IC50: read-out: pIC50 D2L (converted). As to the method: as §1, §2, §4

The next experiment has as its target T6, hERG (Homo sapiens, UniProt Q12809).
T6 construct: expressed in transfected cells; host or cells: HEK293 (membrane fraction)
In words: Competitive radioligand binding, hERG. The following applies: HEK293 membranes, 3H-dofetilide 5 nM. As to the method: as §1, §2, §3

A value given as a limit tells only on which side of the number the result lay.

T1 sequence (P28223 whole entry): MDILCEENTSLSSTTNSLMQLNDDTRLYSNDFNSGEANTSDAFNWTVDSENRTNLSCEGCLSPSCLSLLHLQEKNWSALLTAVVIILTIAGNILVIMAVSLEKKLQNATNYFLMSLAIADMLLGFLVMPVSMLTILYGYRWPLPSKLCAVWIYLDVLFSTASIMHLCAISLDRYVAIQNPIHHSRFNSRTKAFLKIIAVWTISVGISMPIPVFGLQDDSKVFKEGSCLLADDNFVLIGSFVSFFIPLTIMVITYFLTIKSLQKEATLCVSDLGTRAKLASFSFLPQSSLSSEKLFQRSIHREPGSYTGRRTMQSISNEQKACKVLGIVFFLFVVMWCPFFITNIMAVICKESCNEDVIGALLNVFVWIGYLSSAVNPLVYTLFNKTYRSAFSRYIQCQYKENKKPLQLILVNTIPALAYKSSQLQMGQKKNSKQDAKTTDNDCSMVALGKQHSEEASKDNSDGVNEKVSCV
T6 sequence (Q12809 whole entry): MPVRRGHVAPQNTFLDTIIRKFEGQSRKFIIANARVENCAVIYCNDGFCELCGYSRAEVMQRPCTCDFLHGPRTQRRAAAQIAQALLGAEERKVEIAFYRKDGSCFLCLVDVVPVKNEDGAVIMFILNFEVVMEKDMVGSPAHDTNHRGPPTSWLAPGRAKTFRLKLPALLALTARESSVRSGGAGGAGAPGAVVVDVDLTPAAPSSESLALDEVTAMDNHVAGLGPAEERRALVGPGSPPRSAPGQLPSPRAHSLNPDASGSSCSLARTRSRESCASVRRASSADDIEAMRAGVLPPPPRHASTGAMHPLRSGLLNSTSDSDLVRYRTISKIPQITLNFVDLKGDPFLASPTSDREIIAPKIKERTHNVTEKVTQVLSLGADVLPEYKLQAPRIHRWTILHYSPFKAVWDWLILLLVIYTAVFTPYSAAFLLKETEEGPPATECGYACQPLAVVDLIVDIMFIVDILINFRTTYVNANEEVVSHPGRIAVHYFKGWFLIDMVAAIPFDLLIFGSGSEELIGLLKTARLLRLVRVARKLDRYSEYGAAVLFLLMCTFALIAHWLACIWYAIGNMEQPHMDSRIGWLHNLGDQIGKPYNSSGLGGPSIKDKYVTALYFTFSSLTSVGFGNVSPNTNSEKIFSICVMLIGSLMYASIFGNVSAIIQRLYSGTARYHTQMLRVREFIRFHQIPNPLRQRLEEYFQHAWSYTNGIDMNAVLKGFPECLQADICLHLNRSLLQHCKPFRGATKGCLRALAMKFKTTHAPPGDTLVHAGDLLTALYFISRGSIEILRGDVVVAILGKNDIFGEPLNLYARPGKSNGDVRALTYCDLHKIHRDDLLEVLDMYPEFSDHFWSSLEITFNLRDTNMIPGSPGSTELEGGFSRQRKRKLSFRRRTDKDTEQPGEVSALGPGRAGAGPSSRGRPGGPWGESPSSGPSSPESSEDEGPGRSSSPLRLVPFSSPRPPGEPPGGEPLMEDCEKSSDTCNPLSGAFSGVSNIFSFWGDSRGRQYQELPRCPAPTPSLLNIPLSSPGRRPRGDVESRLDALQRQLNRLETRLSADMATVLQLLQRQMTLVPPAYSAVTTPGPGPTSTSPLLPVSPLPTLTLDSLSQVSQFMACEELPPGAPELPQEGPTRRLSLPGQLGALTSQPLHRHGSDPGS

Take `COc1cc(N)c(Cl)cc1C(=O)N[C@@H]1CCN(CCCOc2ccc(F)cc2)C[C@H]1F` (single isomer, unassigned) [(+)-7, trans-4-amino-5-chloro-N-{3-fluoro-1-[3-(4-fluorophenoxy)-propyl]-piperidin-4-yl}-2-methoxybenzamide]: the IC50 at 5HT2A was 70.8 nM; on 5HT3A/B, over 10000 nM; on Alpha1A it was 525 nM; at Alpha2A, over 10000 nM; on D2L it was 2750 nM; at hERG, 288 nM.

For `COc1cc(N)c(Cl)cc1C(=O)NC1CCN(CCCOc2ccc(F)cc2)CC1(F)F` (single isomer, unassigned; (+)) [(+)-17, 4-amino-5-chloro-N-{3,3-difluoro-1-[3-(4-fluorophenoxy)-propyl]-piperidin-4-yl}-2-methoxybenzamide], the IC50 on 5HT2A was 2570 nM; on 5HT3A/B, over 10000 nM; at Alpha1A it was over 10000 nM; at Alpha2A, over 10000 nM; at D2L, over 10000 nM; on hERG, over 10000 nM.

Turning to `COc1cc(N)c(Cl)cc1C(=O)N[C@H]1CCN(CCCOc2ccc(F)cc2)C[C@H]1F` (single isomer, unassigned) [(+)-12, cis-4-amino-5-chloro-N-{3-fluoro-1-[3-(4-fluorophenoxy)-propyl]-piperidin-4-yl}-2-methoxybenzamide], the IC50 on 5HT2A is 324 nM; on 5HT3A/B, over 10000 nM; on Alpha1A, 550 nM; on hERG, 178 nM. Further, the “pIC50 D2L” value on D2L was determined as 5.32.

With `COc1cc(N)c(Cl)cc1C(=O)NC1CCN(CCCOc2ccc(F)cc2)CC1(F)F` (racemic) [(±)-17, 4-amino-5-chloro-N-{3,3-difluoro-1-[3-(4-fluorophenoxy)-propyl]-piperidin-4-yl}-2-methoxybenzamide], the IC50 is 1950 nM at 5HT2A; over 10000 nM at 5HT3A/B; over 10000 nM on Alpha1A; over 10000 nM on Alpha2A; 10500 nM at D2L; 7590 nM at hERG.

For `COc1cc(N)c(Cl)cc1C(=O)N[C@H]1CCN(CCCOc2ccc(F)cc2)C[C@H]1F` (racemic) [(±)-12, cis-4-amino-5-chloro-N-{3-fluoro-1-[3-(4-fluorophenoxy)-propyl]-piperidin-4-yl}-2-methoxybenzamide], the IC50 is 363 nM on 5HT2A; 6760 nM on 5HT3A/B; 447 nM at Alpha1A; 4790 nM on Alpha2A; 4680 nM on D2L; 316 nM at hERG.

As for `COc1cc(N)c(Cl)cc1C(=O)N[C@@H]1CCN(CCCOc2ccc(F)cc2)C[C@H]1F` (single isomer, unassigned) [(−)-7, trans-4-amino-5-chloro-N-{3-fluoro-1-[3-(4-fluorophenoxy)-propyl]-piperidin-4-yl}-2-methoxybenzamide], the IC50 is 759 nM on 5HT2A; 398 nM at Alpha1A; 7760 nM at Alpha2A; 7940 nM at D2L; 316 nM at hERG. Moreover, the “pIC50 5HT3A/B” value on 5HT3A/B is on record as under 5.

For the molecule `COc1cc(N)c(Cl)cc1C(=O)N[C@H]1CCN(CCCOc2ccc(F)cc2)C[C@H]1F` (single isomer, unassigned) [(−)-12, cis-4-amino-5-chloro-N-{3-fluoro-1-[3-(4-fluorophenoxy)-propyl]-piperidin-4-yl}-2-methoxybenzamide], the IC50 was 490 nM at 5HT2A; 2750 nM on 5HT3A/B; 331 nM on Alpha1A; 8130 nM on Alpha2A; 4790 nM at D2L; 191 nM at hERG.

With `COc1cc(N)c(Cl)cc1C(=O)NC1CCN(CCCOc2ccc(F)cc2)CC1(F)F` (single isomer, unassigned) [Compound (−)-17, 4-amino-5-chloro-N-{3,3-difluoro-1-[3-(4-fluorophenoxy)-propyl]-piperidin-4-yl}-2-methoxybenzamide], the IC50 at 5HT2A is 1740 nM; at Alpha1A, 7760 nM. Further, the “pIC50 5HT3A/B” value on 5HT3A/B was under 5. Further, the “pIC50 Alpha2A” value on Alpha2A was under 5. Besides, at D2L, the “pIC50 D2L” value was under 5. Also, the “pIC50 hERG” value at hERG was under 5.

`COc1cc(N)c(Cl)cc1C(=O)N[C@@H]1CCN(CCCOc2ccc(F)cc2)C[C@H]1F` (racemic) [(±)-7, trans-4-amino-5-chloro-N-{3-fluoro-1-[3-(4-fluorophenoxy)-propyl]-piperidin-4-yl}-2-methoxybenzamide]: the IC50 at 5HT2A was 112 nM; on 5HT3A/B, over 10000 nM; on Alpha1A it was over 10000 nM; on Alpha2A, 3630 nM; on D2L it was 4570 nM; on hERG, 234 nM.
